We go through one compound from ChEMBL document CHEMBL6071202, “Design, Synthesis, and Biological Evaluation of 3-Amino-pyrazine-2-carboxamide Derivatives as Novel FGFR Inhibitors” (ACS Med Chem Lett, 2024).

For assay [1], the target named is Fibroblast growth factor receptor 2 (Homo sapiens, UniProt P21802). In words: Inhibition of FGFR2 (unknown origin).
In assay [2] the target is T1, Receptor-type tyrosine-protein kinase FLT3 (Homo sapiens, UniProt P36888).
T1 sequence (P36888 whole entry): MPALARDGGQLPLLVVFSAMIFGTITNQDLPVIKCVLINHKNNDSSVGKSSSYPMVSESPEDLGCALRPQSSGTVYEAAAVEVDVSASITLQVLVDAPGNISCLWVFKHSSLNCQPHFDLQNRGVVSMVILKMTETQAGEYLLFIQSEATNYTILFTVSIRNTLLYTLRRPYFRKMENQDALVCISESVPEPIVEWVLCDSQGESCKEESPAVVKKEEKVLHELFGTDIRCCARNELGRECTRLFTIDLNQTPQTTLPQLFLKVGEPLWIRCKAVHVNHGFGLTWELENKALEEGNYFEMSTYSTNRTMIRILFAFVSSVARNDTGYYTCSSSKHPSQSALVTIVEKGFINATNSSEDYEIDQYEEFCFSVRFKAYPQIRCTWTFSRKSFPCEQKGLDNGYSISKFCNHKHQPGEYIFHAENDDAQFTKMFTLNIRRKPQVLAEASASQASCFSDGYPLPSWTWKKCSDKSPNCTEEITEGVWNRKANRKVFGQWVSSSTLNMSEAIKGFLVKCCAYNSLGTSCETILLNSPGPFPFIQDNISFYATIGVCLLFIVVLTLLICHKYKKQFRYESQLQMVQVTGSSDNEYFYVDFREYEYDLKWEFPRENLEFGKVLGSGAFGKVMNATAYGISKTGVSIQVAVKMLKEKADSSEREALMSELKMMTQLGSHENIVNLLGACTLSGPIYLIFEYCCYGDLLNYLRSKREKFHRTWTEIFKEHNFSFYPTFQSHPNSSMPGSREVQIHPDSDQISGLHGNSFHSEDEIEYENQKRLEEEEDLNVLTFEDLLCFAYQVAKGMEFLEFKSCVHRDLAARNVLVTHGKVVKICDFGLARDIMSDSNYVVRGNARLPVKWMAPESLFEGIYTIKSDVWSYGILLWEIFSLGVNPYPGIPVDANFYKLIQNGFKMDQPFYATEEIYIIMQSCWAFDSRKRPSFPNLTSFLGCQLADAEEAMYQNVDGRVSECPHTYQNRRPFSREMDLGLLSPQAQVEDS
The assay is described as follows: Inhibition of FLT3 (unknown origin) by immobilized metal ion affinity-based fluorescence polarization. A general note: Polarisation of emitted light reports the rotation of a fluorescent probe.

The IC50 is the point on the concentration scale where inhibition reaches its midpoint. A lower IC50 goes with greater potency.

Sequence of Fibroblast growth factor receptor 2 (P21802 whole entry): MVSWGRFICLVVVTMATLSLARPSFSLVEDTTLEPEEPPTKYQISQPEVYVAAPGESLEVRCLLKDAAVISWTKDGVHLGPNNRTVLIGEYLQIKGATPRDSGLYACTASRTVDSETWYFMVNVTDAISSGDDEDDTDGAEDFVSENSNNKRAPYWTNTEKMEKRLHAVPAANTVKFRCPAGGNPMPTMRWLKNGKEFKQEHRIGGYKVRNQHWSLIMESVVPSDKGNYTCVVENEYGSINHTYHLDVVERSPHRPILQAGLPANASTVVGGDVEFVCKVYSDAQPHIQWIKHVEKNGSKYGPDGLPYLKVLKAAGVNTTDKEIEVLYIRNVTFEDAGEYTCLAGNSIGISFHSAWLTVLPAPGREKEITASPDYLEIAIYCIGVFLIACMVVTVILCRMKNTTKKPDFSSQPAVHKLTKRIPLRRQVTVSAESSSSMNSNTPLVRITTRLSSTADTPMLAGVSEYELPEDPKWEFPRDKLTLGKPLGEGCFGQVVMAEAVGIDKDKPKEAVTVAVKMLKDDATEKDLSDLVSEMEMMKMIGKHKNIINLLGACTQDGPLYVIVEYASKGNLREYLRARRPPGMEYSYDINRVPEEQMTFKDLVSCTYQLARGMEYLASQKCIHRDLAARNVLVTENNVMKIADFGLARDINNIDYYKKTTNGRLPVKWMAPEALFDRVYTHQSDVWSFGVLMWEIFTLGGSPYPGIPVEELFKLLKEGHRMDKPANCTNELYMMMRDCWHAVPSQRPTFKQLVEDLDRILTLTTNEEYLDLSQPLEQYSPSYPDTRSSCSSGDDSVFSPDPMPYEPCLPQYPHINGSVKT

Regarding `Nc1ncc(-c2ccncc2)nc1Nc1ccc2[nH]ccc2c1` [AKN-028], the IC50 in assay [1] was 120 nM; in assay [2] it was 6 nM.
